These results are taken from article PMC6049614 (Chemical Communications (Cambridge, England), 2018).

Each structure is given as a SMILES string. Where a SMILES comes first, the peptide text is derived from it. Bridges are numbered along the chain shown (N, C = ends). [ ]: non-standard residue; d: D form. The star is where a group is joined. X1 = O=C(O)CN1CCN(CC(=O)O)CCN(Cc2ccc(CC(=O)*)cc2)CC1; Mpa = O=C(O)CCS Some results are limits rather than exact numbers.

The target in series [1] is T1, human vasopressin receptor V1b (Homo sapiens, UniProt P47901).
T1 construct: expressed in transfected cells
T1 sequence (P47901 1-424): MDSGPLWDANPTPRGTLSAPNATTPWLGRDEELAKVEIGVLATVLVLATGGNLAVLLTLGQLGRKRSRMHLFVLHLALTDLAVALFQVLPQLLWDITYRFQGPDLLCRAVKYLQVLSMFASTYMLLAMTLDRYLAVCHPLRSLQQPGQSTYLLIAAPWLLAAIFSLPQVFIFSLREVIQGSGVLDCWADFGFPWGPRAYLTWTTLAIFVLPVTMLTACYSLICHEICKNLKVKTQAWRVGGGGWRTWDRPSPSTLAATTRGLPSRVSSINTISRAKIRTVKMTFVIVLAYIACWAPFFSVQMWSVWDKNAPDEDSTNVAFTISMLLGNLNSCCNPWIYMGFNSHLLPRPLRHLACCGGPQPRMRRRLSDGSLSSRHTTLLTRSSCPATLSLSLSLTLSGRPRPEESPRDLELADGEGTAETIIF
The series is described as follows: Scintillation proximity assay, displacement of [3H]AVP from human V1b receptor. The series is classed as binding. From the text: OT analogues were screened in scintillation proximity assays that displace [^3H]OT or [^3H]AVP from the corresponding receptors. All peptides screened, including in a reduced state, preferentially bound human OTR with nanomolar affinity (Table 1). In line with previous studies, conjugation of a large group to position 8 afforded analogues with increased selectivity and improved affinity towards OTR[15] (approximately 60-fold for AlF-NODA-dLVT, and 7-fold for dLVT; Table 1 and ESI, ^† Fig. S1). […]. […]
tracer, a probe for nose-to-brain oxytocin uptake in vivo
Rhiannon Beard1; Nisha Singh2,3; Christophe Grundschober4; Antony D. Gee2 and Edward W. […]
a.1Department of Chemistry, Imperial College London, Exhibition Road, London, SW7 2AZ, UK; 2Division of Imaging Sciences, King’s College London, 4th Floor, Lambeth Wing, St Thomas’ Hospital, SE1, 7EH, London, UK; 3Centre for Neuroimaging Sciences, IoPPN, KCL, De Crespigny Park, London, SE5 8AF, UK; and 4 Roche Pharma Research and Early Development, Discovery Neuroscience, Roche Innovation Center Basel, F. Hoffmann-La Roche Ltd, Grenzacherstrasse 124, 4070 Basel, Switzerland […]
All RCYs reported are decay corrected to the time of 18F delivery. The protocols for performing receptor radioligand binding and potency studies on transfected cells to determine affinity constants have been reported elsewhere. 1 […]
In general terms: Scintillation proximity formats need no separation of bound from free tracer.

A further series deals with T2, human V1a receptors (Homo sapiens, UniProt P37288).
T2 construct: expressed in transfected cells
The series is described as follows: Scintillation proximity assay, displacement of [3H]AVP from human V1a receptor. The series is classed as binding. From the text:
(§1) OT analogues were screened in scintillation proximity assays that displace [^3H]OT or [^3H]AVP from the corresponding receptors. […]
(§2) All RCYs reported are decay corrected to the time of 18F delivery. The protocols for performing
(§3) receptor radioligand binding and potency studies on transfected cells to determine affinity

The nature of a further series: in vivo. To be noted: rat. The procedure: To investigate the plausibility of i.n. administration for OT-like therapies, given the similar structure and hydrophilic profile between AlF-NODA-dLVT and OT, in vivo tissue distribution of [^18F]AlF-NODA-dLVT was determined following i.n. or i.v. administration. […]. Here, it is anticipated that both routes show independent kinetic and metabolic profiles and the extended apparent availability of OT following i.n. administration supports a longer timeframe for this study.[27],[28] Distribution was determined through gamma counting of radioactivity in isolated tissue. A large portion underwent excretion via kidneys (i.v. 4.6 ± 0.4%ID per g; i.n. 1.31 ± 0.7%ID per g) and urine (i.v. 2.5 ± 1.2%ID per g; i.n. 7.7 ± 2.2%ID per g), as expected from the hydrophilic character of the tracer, similar to previous results found with radiolabelled OT given i.v. (Fig. 4A).[29]
Supplementary Figure 5: Pharmacokinetic data acquired from three individual rats showing plasma clearance of AlF-NODA-dLVT over time. Rats received a dose of AlF-NODA-dLVT by tail vein injection (0.08 mg/kg), and blood plasma samples were taken at the specified time point for quantitative analysis by mass spectrometry. […]
Supplementary Figure 6: Transaxial nanoPET scan showing distribution over time of [18F]AlF-NODA-dLVT. Tracer was administered either by i.v. bolus (top) or intranasally (bottom) in rat. […]

A further series concerns the target T3, human OTR (Homo sapiens, UniProt P30559).
T3 construct: expressed in transfected cells
T3 sequence (P30559 1-389): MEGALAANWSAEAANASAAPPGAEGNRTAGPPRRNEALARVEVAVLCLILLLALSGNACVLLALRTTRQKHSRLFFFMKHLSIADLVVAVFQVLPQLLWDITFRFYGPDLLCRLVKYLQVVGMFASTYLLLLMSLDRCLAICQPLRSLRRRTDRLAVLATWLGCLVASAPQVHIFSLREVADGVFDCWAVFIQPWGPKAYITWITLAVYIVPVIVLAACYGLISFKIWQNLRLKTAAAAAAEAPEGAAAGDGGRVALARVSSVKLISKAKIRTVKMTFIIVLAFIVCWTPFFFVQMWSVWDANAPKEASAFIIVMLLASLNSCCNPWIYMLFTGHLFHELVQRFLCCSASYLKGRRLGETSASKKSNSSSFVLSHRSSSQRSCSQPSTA
Briefly: Scintillation proximity assay, displacement of [3H]OT from human OTR. The series is classed as binding.
Text: as §1, §2, §3

The target in series [2] is T4, human vasopressin receptor V2 (Homo sapiens, UniProt P30518).
T4 construct: expressed in transfected cells
Briefly: Scintillation proximity assay, displacement of [3H]AVP from human V2 receptor. The series is classed as binding.
Text: as §1, §2, §3

T4 sequence (P30518 whole entry): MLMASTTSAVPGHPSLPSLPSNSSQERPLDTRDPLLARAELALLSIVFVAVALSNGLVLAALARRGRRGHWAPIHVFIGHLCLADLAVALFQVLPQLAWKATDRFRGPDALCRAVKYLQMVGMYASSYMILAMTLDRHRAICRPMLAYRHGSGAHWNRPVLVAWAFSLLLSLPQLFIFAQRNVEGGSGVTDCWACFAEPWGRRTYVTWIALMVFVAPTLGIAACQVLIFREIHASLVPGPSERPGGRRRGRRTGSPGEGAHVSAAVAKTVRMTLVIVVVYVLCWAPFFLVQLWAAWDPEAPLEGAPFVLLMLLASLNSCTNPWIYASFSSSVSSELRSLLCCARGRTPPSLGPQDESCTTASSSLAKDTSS
T2 sequence (P37288 whole entry): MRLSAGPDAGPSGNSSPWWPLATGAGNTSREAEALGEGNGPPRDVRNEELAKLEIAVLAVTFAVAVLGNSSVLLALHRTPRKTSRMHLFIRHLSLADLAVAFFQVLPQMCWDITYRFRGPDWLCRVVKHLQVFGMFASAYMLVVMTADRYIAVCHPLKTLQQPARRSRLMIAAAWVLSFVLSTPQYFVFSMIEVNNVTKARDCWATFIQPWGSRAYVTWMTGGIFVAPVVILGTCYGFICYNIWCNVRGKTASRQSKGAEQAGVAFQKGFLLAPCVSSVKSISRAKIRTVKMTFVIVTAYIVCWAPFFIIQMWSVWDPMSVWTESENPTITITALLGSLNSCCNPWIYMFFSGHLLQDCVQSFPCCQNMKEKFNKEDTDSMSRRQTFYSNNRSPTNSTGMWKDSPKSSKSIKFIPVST

Consider `CC[C@H](C)[C@@H]1NC(=O)[C@H](Cc2ccc(O)cc2)NC(=O)CCSSC[C@@H](C(=O)N2CCC[C@H]2C(=O)N[C@@H](CCCCNC(=O)Cc2ccc(CN3CCN(CC(=O)O)CCN(CC(=O)O)CC3)cc2)C(=O)NCC(N)=O)NC(=O)[C@H](CC(N)=O)NC(=O)[C@H](CCC(N)=O)NC1=O` [AlF-NODA-dLVTc] ([Mpa]YIQNCPK(X1)G-NH2; disulfide 1-6), for which the inhibition constant Ki – broadly, the equilibrium dissociation constant of an inhibitor or competing ligand from its target – in series [1] was > 6 µM; at human V1a receptors it was 157 ± 26 nM; at human OTR (human OTR), 2.6 ± 1.7 nM; in series [2] it was > 6 µM. For the same compound, the half-life (as a rule, the time in which the quantity being followed falls by half) in “in vivo” (Wistar, iv, 0.08 mg/kg) was 14 min. For the same compound, the “increase in half-life compared to OT” value in “in vivo” is recorded as “approximately 5 fold”. Moreover, the “selectivity towards OTR” value at human OTR (OTR over V1a, from Ki values of Table 1) is “approximately 60 fold”.
